The results in this text go back to US20250313548A1 (Actio Biosciences, Inc., priority 2023, published 2025).

human, KCNT1, sequence (Q5JUK3 whole entry): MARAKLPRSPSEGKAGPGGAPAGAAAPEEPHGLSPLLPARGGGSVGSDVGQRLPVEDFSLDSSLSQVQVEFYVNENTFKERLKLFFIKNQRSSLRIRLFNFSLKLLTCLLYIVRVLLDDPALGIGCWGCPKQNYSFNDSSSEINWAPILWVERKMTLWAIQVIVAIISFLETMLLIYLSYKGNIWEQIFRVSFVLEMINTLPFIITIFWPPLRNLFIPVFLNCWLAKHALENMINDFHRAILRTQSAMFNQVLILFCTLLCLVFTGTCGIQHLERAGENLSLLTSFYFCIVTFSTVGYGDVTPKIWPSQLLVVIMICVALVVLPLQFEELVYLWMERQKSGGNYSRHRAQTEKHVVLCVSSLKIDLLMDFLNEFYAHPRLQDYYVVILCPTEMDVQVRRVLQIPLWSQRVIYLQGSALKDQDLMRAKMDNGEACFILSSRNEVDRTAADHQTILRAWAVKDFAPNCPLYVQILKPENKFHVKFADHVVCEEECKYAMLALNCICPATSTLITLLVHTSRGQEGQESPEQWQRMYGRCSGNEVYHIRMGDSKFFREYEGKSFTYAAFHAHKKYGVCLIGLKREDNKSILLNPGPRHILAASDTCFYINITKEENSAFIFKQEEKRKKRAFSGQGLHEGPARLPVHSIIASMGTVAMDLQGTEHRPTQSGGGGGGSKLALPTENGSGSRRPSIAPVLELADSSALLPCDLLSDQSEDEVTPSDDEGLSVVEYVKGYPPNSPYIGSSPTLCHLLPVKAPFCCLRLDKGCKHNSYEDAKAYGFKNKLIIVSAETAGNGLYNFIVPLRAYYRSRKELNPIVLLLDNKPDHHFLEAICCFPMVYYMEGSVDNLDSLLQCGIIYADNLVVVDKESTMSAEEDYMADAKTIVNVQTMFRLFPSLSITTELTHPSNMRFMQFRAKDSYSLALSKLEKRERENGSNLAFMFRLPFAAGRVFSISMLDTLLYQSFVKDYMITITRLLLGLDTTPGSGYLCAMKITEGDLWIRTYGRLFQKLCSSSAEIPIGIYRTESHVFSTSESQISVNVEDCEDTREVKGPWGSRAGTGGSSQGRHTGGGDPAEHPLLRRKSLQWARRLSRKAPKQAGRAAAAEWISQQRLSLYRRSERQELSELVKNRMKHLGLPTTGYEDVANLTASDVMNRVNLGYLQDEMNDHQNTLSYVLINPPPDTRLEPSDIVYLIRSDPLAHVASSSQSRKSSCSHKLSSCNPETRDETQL

For this test, the target named is human, KCNT1 (Homo sapiens (Human), UniProt Q5JUK3). The test can be described thus: FLIPR Tl/K Flux Assay. The test is classed as cell-based. The note with it: HEK293 cells stably expressing human KCNT1; Tl+ flux stimulated with EC80 of agonist Loxapine. The essentials:
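HEK293 cells stably expressing human KCNT1 were loaded with FLIPR potassium dye in HEPES/HBSS pH 7.4 with 5 mM probenecid, 1 h at 25 °C, then given test compound for 30 min at 25 °C. Tl+ flux was triggered with chloride-free buffer containing Tl+ and EC80 loxapine and read 160 s. IC50 came from Hill fits of % inhibition.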
As usually defined, the IC50 is the midpoint of a concentration-inhibition curve. Read a high IC50 as weaker potency. For the compound `Cn1nc(C(F)(F)F)cc1C(=O)N[C@H]1CCCn2nc(-c3nnc(C(F)(F)F)o3)cc21` [Compound I-316a, (S)-1-Methyl-3-(trifluoromethyl)-N-(2-(5-(trifluoromethyl)-1,3,4-oxadiazol-2-yl)-4,5,6,7-tetrahydropyrazolo[1,5-a]pyridin-4-yl)-1H-pyrazole-5-carboxamide], the 50% inhibitory concentration (IC50) was 500 to 1000 nM.
The same measure for `Cn1nc(C(F)(F)F)cc1C(=O)N[C@H]1CCCn2nc(-c3cnc(C(F)(F)F)s3)cc21` [Compound I-41a, (S)-1-Methyl-3-(trifluoromethyl)-N-(2-(2-(trifluoromethyl)thiazol-5-yl)-4,5,6,7-tetrahydropyrazolo[1,5-a]pyridin-4-yl)-1H-pyrazole-5-carboxamide]: less than 250 nM; for `CCOc1cc(F)cc(C(=O)N[C@H]2CCn3nc(-c4ccnc(C(F)(F)F)c4)cc32)c1` [Compound I-568a, (S)-3-Ethoxy-5-fluoro-N-(2-(2-(trifluoromethyl)pyridin-4-yl)-5,6-dihydro-4H-pyrrolo[1,2-b]pyrazol-4-yl)benzamide]: less than 250 nM; for `Cn1nc(C(F)(F)F)cc1C(=O)N[C@H]1CCCn2nc(-c3ccnc(CO)c3)cc21` [Compound I-322a, (S)—N-(2-(2-(Hydroxymethyl)pyridin-4-yl)-4,5,6,7-tetrahydropyrazolo[1,5-a]pyridin-4-yl)-1-methyl-3-(trifluoromethyl)-1H-pyrazole-5-carboxamide]: greater than 1000 nM.
The same measure for `Cn1nc(C(F)(F)F)cc1C(=O)N[C@H]1CCn2nc(-c3ccnc(C(C)(F)F)c3)cc21` [Compound I-537a, (S)-N-(2-(2-(1,1-Difluoroethyl)pyridin-4-yl)-5,6-dihydro-4H-pyrrolo[1,2-b]pyrazol-4-yl)-1-methyl-3-(trifluoromethyl)-1H-pyrazole-5-carboxamide]: less than 250 nM.
The value for `Cn1nc(CC(F)(F)F)cc1C(=O)N[C@H]1CCCn2nc(-c3ccnc(C(F)(F)F)c3)cc21` [Compound I-389a] was less than 250 nM; that for `CC(F)(F)c1cc(C(=O)N[C@H]2CCn3nc(-c4ccnc(C(F)(F)F)c4)cc32)ccn1` [Compound I-528a, (S)-2-(1,1-Difluoroethyl)-N-(2-(2-(trifluoromethyl)pyridin-4-yl)-5,6-dihydro-4H-pyrrolo[1,2-b]pyrazol-4-yl)isonicotinamide] was less than 250 nM.
Consider `Cn1nc(C2CC2)cc1C(=O)N[C@H]1CCCCn2nc(-c3ccnc(C(F)(F)F)c3)cc21` [Compound I-388a], for which the concentration for half-maximal inhibition (IC50) is less than 250 nM.
Compound `CCOc1cc(-n2cc3c(n2)CCCC3NC(=O)c2cccc(C(F)(F)F)c2)ccn1` (racemic) [Compound I-18, (rac)-N-(2-(2-Ethoxypyridin-4-yl)-4,5,6,7-tetrahydro-2H-indazol-4-yl)-3-(trifluoromethyl)benzamide] returned a half-maximal inhibitory concentration (IC50) of less than 250 nM.
The same measure for `O=C(N[C@H]1CCCc2nc(-c3ccnc(C4CC4)c3)oc21)c1cncc(C(F)(F)F)n1` [Compound I-152a, (S)-N-(2-(2-Cyclopropylpyridin-4-yl)-4,5,6,7-tetrahydrobenzo[d]oxazol-7-yl)-6-(trifluoromethyl)pyrazine-2-carboxamide]: less than 250 nM; for `CC1(C)C[C@H](NC(=O)c2cccc(C#N)c2)c2cc(-c3ccnc(C(F)(F)F)c3)nn2C1` [Compound I-220a, (S)-3-Cyano-N-(6,6-dimethyl-2-(2-(trifluoromethyl)pyridin-4-yl)-4,5,6,7-tetrahydropyrazolo[1,5-a]pyridin-4-yl)benzamide]: 250 to 500 nM.
The same measure for `O=C(N[C@H]1CCCc2nc(-c3ccnc(C(F)(F)F)c3)oc21)c1cc(Cl)cc(Cl)c1` [Compound I-185a, (S)-3,5-Dichloro-N-(2-(2-(trifluoromethyl)pyridin-4-yl)-4,5,6,7-tetrahydrobenzo[d]oxazol-7-yl)benzamide]: less than 250 nM.
For the compound `CC(F)(F)c1cc(-c2nc3c(o2)CCCC3NC(=O)c2cn(C(F)(F)F)nc2C(F)F)ccn1` (single isomer, unassigned) [Compound I-535], the concentration for half-maximal inhibition (IC50) is less than 250 nM.
